Experimental data published in patent US12635693B2, “Activated ferrate compositions and methods” (THE TEXAS A&M UNIVERSITY SYSTEM, priority 2020, dated 2026).

Test: Removal (oxidation) of Carbamazepine (CBZ) by ferrate with or without amino acids, HPLC
Settings: [ferrate]=100.0 μM
Procedure: (Experimental conditions: [CBZ]=5.0 μM, [ferrate]=100.0 μM, [amino acid]=100.0 μM, pH 9.0 (10.0 mM borate buffer), reaction time=1 min).
After certain reaction time, a 20.0 μL NH2OH solution (1 M, [NH2OH]: [ferrate]=10.0) was added to quench the reactions. Samples were transferred into high performance liquid chromatography (HPLC) vials and subsequently analyzed using the HPLC method. Each treatment was performed with triplicates and the mean removal values were reported.
Preliminary experiments were conducted to see the influence of amino acids (100.0 μM) on removal of CBZ (5.0 μM) by ferrate (100.0 μM) at pH 9.0 (10.0 mM borate buffer) after 1 min of oxidation. In these experiments, the solution of selected amino acids (FIG. 1) was mixed with CBZ, followed by addition of ferrate.

For `[O]=[Fe](=[O])([O-])[O-]` [ferrate], the “removal of CBZ” value (ferrate only (without proline), [CBZ]=5.0 μM, pH 9.0 (10.0 mM borate buffer), 80 min) was 70%.
In the case of `O=C(O)[C@@H]1CCCN1` [proline], the “oxidation of CBZ” value (molar ratio of proline to ferrate 1.0, within 90 s, pH 9.0) is reported as 100%.
